Read-outs that look alike come from different tables or passages of the source.
Legend:
[1] = test system: L. major; assay: ChEMBL dataset of pIC50 values against L. major used for the RF model (Table S1); format: cell-based, Leishmania major; note: call rule not given here
[2] = test system: L. major; parameters: method as in ChEMBL; conditions: ref ChEMBL, cited from earlier work
[3] = Active/Inactive class assigned to ChemBL structures for Random forest model construction (Table S1)
[4] = ChemBL structures with pIC50 values used for Random forest model construction (Table S1)
[5] = Active/Inactive class assigned to the ChEMBL pIC50 value for Random forest model construction, ref ChEMBL
[6] = ChemBL structures with pIC50 values used for Random forest model construction, L. major

| SMILES | Outcome [1, 3] | pIC50 Value [2, 4] | Outcome [1, 5] | pIC50 Value [2, 6] |
| --- | --- | --- | --- | --- |
| Cc1ccc2cc(C3CC(c4ccc(Br)s4)=NN3)c(Cl)nc2c1 (stereo not drawn) [CHEMBL2235715] | Active | 5.64 |  |  |
| O=[N+]([O-])c1ccc(-c2nnc(N3CCCCC3)s2)s1 [CHEMBL191691] |  |  | Inactive | 3.82 |
| CC(=O)C1=C(CNc2ccc(C3=NNC(c4ccc(O)cc4)C3)cc2)N(C)C(=O)NC1c1ccccc1 (stereo not drawn) [CHEMBL3786468] | Active | 6.02 |  |  |
| CN(C)Cc1ccc(Nc2c3ccc(N)cc3nc3cc(N)ccc23)cc1 [CHEMBL34804] | Active | 5.30 |  |  |
| COc1ccc2c(c1)C=C(C(=O)/C=C/c1ccc(Cl)c(Cl)c1)CO2 [CHEMBL3329269] | Active | 6.00 |  |  |
| CC(=O)Oc1ccc(-c2c(-c3ccccc3)nc3ccccn23)cc1 [CHEMBL2151860] |  |  | Inactive | 4.80 |
| COc1cc(OC)c2c(C)[n+](-c3cccc4cc5ccccc5cc34)c(C)cc2c1.F[B-](F)(F)F [CHEMBL482394] | Active | 6.14 |  |  |
| COc1cc(C)c(-c2ccc(O)c3c2C[C@@H](C)N[C@@H]3C)c2cccc(O)c12 [CHEMBL375542] |  |  | Inactive | 4.44 |
| O=[N+]([O-])c1ccc(Cn2cc(CNc3nnc(-c4ccc([N+](=O)[O-])o4)s3)nn2)cc1 [CHEMBL1951531] |  |  | Inactive | 4.49 |
| CC(c1ccccc1)N1CN(CC(=O)O)CSC1=S (stereo not drawn) [CHEMBL4286679] |  |  | Inactive | 4.51 |
| NCCNCCc1ccc(Nc2c3ccccc3nc3ccccc23)cc1 [CHEMBL89150] | Active | 6.15 |  |  |
| Cl.N=C(NCC1CCCO1)c1ccc(N2CCN(c3nnc(-c4ccc([N+](=O)[O-])o4)s3)CC2)cc1 (stereo not drawn) [CHEMBL1783208] |  |  | Inactive | 4.02 |
| Cl.O=[N+]([O-])c1ccc(-c2nnc(N3CCN(c4ccc(C5=NCCCN5)cc4)CC3)s2)o1 [CHEMBL1783211] |  |  | Inactive | 3.70 |
| C=C[C@@]1(C)Cc2c(OC(C)=O)ccc(OC(C)=O)c2C[C@H]1C(=C)C [CHEMBL442439] | Active | 5.37 |  |  |
| CCOC(=O)C/C(=N/O)c1nnn[nH]1 [CHEMBL1255762] |  |  | Inactive | 4.00 |
| O=C(C(Cl)Cl)N1c2ccccc2Oc2ccccc21 [CHEMBL3759299] |  |  | Inactive | 4.09 |
| C[C@H](O)C#CC#CC#CC#CCCCCCCCC(=O)O [CHEMBL487989] | Active | 5.31 |  |  |
| C/C=C/C1=C(OC)C(=O)C(OC)=C(OC)C1=O [CHEMBL454996] |  |  | Inactive | 4.14 |
| CCCN1CN(CC(=O)OC)CSC1=S [CHEMBL4294585] |  |  | Inactive | 3.69 |
| COc1ccc(-c2nc3ccc([N+](=O)[O-])cc3[nH]2)cc1 [CHEMBL1535921] | Active | 5.50 |  |  |
| Cc1ccc2cc(/C=C/C(=O)c3cc(Cl)sc3Cl)c(Cl)nc2c1 [CHEMBL1940857] | Active | 5.69 |  |  |

| SMILES | Outcome [1, 3] | pIC50 Value [2, 4] | Outcome [1, 5] | pIC50 Value [2, 6] |
| --- | --- | --- | --- | --- |
| C/C=C/c1cc(OC)c(OC)c(O)c1OC [CHEMBL501754] |  |  | Inactive | 3.41 |
| CC(=O)C1=C(CNc2ccc(C(=O)/C=C/c3ccc(N(C)C)cc3)cc2)N(C)C(=O)NC1c1ccccc1 (stereo not drawn) [CHEMBL3787141] | Active | 5.86 |  |  |
| COc1cccc(C(=O)/C=C/c2ccc(-n3ccnc3)cc2)c1 [CHEMBL569119] | Active | 5.49 |  |  |
| Cc1ccc2cc(C3CC(c4sccc4Cl)=NN3)c(Cl)nc2c1 (stereo not drawn) [CHEMBL2236140] | Active | 5.67 |  |  |
| CCCCCCCCCC(=O)OCCc1ccc(O)cc1 [CHEMBL3960630] |  |  | Inactive | 4.19 |
| COc1ccc(/C=N\NC(N)=S)cc1OCc1cn(CC(=O)c2ccc(Cl)cc2)nn1 [CHEMBL4163696] | Active | 5.77 |  |  |
| COc1ccc(C2NC(=O)NC(C)=C2C(C)=O)cc1 (stereo not drawn) [CHEMBL1369396] | Active | 5.58 |  |  |
| O=[N+]([O-])c1ccc(-c2nnc(N3CCOCC3)s2)o1 [CHEMBL365770] |  |  | Active | 5.28 |
| COc1cc(OC)c2c(C)[n+](-c3ccc(C(C)C)cc3C(C)C)c(C)cc2c1.F[B-](F)(F)F [CHEMBL519606] | Active | 6.27 |  |  |
| COc1cc(OC)c2c(C)[n+](-c3ccc4ncccc4c3)c(C)cc2c1.O=C([O-])C(F)(F)F [CHEMBL481907] |  |  | Inactive | 4.00 |
| Fc1ccc(-c2nc3c(NCCN4CCOCC4)nccn3c2I)cc1 [CHEMBL3634362] | Active | 5.55 |  |  |
| CN(C)Cc1ccc(Nc2c3ccc(Cl)cc3nc3cc(Cl)ccc23)cc1 [CHEMBL36404] | Active | 5.70 |  |  |
| O=C(CBr)N1c2ccccc2Oc2ccc(Cl)cc21 [CHEMBL3759174] |  |  | Inactive | 4.00 |
| CC1=N[C@H](C)Cc2c(-c3ccc(C(F)(F)F)cc3)ccc(O)c21 [CHEMBL1275619] |  |  | Inactive | 4.00 |
| O=C(/C=C/c1ccc(O)cc1)c1ccccc1 [CHEMBL7747] | Active | 5.40 |  |  |
| O=[N+]([O-])c1ccc2ncnc(Nc3cccc(Br)c3)c2c1 [CHEMBL329161] |  |  | Active | 5.04 |
| O=[N+]([O-])c1ccc(-c2nnc(NCc3cn(Cc4ccc(Cl)cc4)nn3)s2)o1 [CHEMBL1951527] |  |  | Inactive | 4.05 |
| Cc1cccc2oc(=O)c3c(c12)O[C@H](C)[C@@]3(C)CC(=O)[C@@H]1OC1(C)C [CHEMBL517042] |  |  | Inactive | 4.87 |
| COc1ccc(/C=N/NC(=O)c2ccccc2OC)cc1O [CHEMBL2382051] |  |  | Inactive | 4.34 |
| COc1c2c(cc(O)c1-c1c(C)cc3cccc(OC)c3c1O)C[C@H](C)N=C2C [CHEMBL221884] |  |  | Inactive | 4.48 |
| COc1ccc(-c2nnc3sc(-c4ccc(F)cc4)nn23)cc1 [CHEMBL1256800] |  |  | Inactive | 4.00 |

| SMILES | Outcome [1, 3] | pIC50 Value [2, 4] | Outcome [1, 5] | pIC50 Value [2, 6] |
| --- | --- | --- | --- | --- |
| COc1ccc(/C=C/C(=O)c2ccc(O)cc2)c(OC)c1 [CHEMBL434066] | Active | 5.40 |  |  |
| Cc1ncc(-c2ccnc(Nc3ccc(S(C)(=O)=O)cc3)n2)n1C(C)C [CHEMBL488436] | Active | 5.50 |  |  |
| Cc1ccc2cc(C3CC(c4ccc(C)s4)=NN3)c(Cl)nc2c1 (stereo not drawn) [CHEMBL2236138] | Active | 5.58 |  |  |
| Cc1ccc(C(=O)/C=C/c2cc3cccc(C)c3nc2Cl)s1 [CHEMBL1940864] | Active | 5.73 |  |  |
| COc1ccccc1Nc1ncnc2ccc([N+](=O)[O-])cc12 [CHEMBL3758369] | Active | 5.36 |  |  |
| COc1ccc([C@@H]2COc3c(ccc4c3C=CC(C)(C)O4)C2)c(OC)c1O [CHEMBL498725] |  |  | Inactive | 4.63 |
| Cn1c([N+](=O)[O-])cnc1-c1nnc(N2CCN(C(=O)c3ccc(Cl)s3)CC2)s1 [CHEMBL521458] |  |  | Active | 5.03 |
| CCOC(=O)c1ccc(-c2c(-c3ccccc3)nc3cnccn23)cc1 [CHEMBL3634353] |  |  | Inactive | 4.76 |
| Cc1cccc2cc(C3CC(c4cc(Cl)sc4Cl)=NN3)c(Cl)nc12 (stereo not drawn) [CHEMBL2236131] | Active | 5.70 |  |  |
| COc1cc(/C=N\NC(N)=S)ccc1OCc1cn(CC(=O)c2ccc(Cl)cc2)nn1 [CHEMBL4164916] |  |  | Active | 5.27 |
| COCCOC(=O)C1=C(C)NC(C)=C(C(=O)OC/C=C/c2ccccc2)C1c1cccc([N+](=O)[O-])c1 (stereo not drawn) [CHEMBL452076] |  |  | Inactive | 4.67 |
| NC[C@@H]1O[C@H](O[C@H]2[C@@H](O)[C@H](O[C@@H]3[C@@H](O)[C@H](N)C[C@H](N)[C@H]3O[C@H]3O[C@H](CO)[C@@H](O)[C@H](O)[C@H]3N)O[C@@H]2CO)[C@H](N)[C@@H](O)[C@@H]1O [CHEMBL370143] |  |  | Inactive | 4.00 |
| Cc1cccc2cc(C3CC(c4sccc4Br)=NN3)c(Cl)nc12 (stereo not drawn) [CHEMBL2236132] | Active | 5.64 |  |  |
| CC1=C(C(=O)OC(C)C)C(c2cccc([N+](=O)[O-])c2)C(C(=O)OC2CN(C(c3ccccc3)c3ccccc3)C2)=C(N)N1 (stereo not drawn) [CHEMBL1275868] |  |  | Inactive | 4.77 |
| O=C(c1ccccc1)N1CCN(c2nnc(-c3ccc([N+](=O)[O-])s3)s2)CC1 [CHEMBL195362] |  |  | Inactive | 4.60 |
| CN(C)CCNc1nccn2c(I)c(-c3ccccc3)nc12 [CHEMBL3634357] |  |  | Inactive | 4.62 |
| Cc1csc(C(=O)/C=C/c2cc3cccc(C)c3nc2Cl)c1 [CHEMBL1940863] | Active | 5.74 |  |  |
| O=[N+]([O-])c1ccc(-c2nnc(N3CCN(c4ccccc4)CC3)s2)s1 [CHEMBL382933] |  |  | Inactive | 3.98 |
| N#CCC(=O)N1c2ccccc2Oc2ccccc21 [CHEMBL3758694] |  |  | Inactive | 4.00 |
| COc1cccc2c(-c3ccc4c(c3O)[C@@H](C)N[C@H](C)C4)c(C)cc(OC)c12 [CHEMBL410597] |  |  | Inactive | 4.33 |
| O=[N+]([O-])c1ccc(-c2nc3ccccn3c2-c2ccccc2)cc1 [CHEMBL2151880] |  |  | Inactive | 4.52 |

Source: article PMC8196580, “Identification of Kaurane-Type Diterpenes as Inhibitors of Leishmania Pteridine Reductase I” (Molecules, 2021)
